Source: patent US6335451B1, “Five-membered heterocycles having biphenylsulfonyl substitution, with sulfonylcyanamide side chain, compositions containing them, and methods of using them” (Hoechst Aktiengesellschaft, priority 1997, dated 2002)

Key:
[1] = system: Na+-dependent Cl−/HCO3− exchanger (NCBE); test: Inhibition of the Na+-dependent Cl−/HCO3− exchanger (NCBE) in human endothelial cells (pHi recovery, BCECF fluorescence, FLIPR); assay type: cell-based; conditions: inhibitor concentration of 10 μM; human endothelial cells (ECV-304); relative to 100% and 0% pHi recovery controls, 50 μM HOE 642 present
Experimental: Inhibition of the Na^+-dependent Cl^−/HCO3^− exchanger (NCBE) in human endothelial cells
Human endothelial cells (ECV-304) were detached from culture bottles with the aid of trypsin/EDTA buffer (0.05/0.02% in phosphate buffer) and, after centrifugation (100 g, 5 min), taken up in a buffered salt solution (mmol/l: 115 NaCl, 20 NH4Cl, 5 KCl, 1 CaCl2, 1 MgSO4, 20 N-(2-hydroxyethyl)piperazine-N′-2-ethanesulfonic acid (HEPES), 5 glucose and 1 g/l of bovine serum albumin; pH 7.4). This cell suspension was incubated at 37° C. for 20 min with 5 μM BCECF-acetoxymethyl ester. The cells were then washed and resuspended in a sodium- and bicarbonate-free buffer solution (mmol/l: 5 HEPES, 133.8 choline chloride, 4.7 KCl, 1.25 MgCl2, 0.97 K2HPO4, 0.23 KH2PO4, 5 glucose; pH 7.4).
For subsequent fluorescence measurement in an FLIPR (Fluorescent Imaging Plate Reader) 100 μl of this cell suspension having 20,000 cells in each case were pipetted per well into a 96-well microtiter plate and this microtiter plate was centrifuged (100 g, 5 min).
In the FLIPR, 100 μl of buffer solution in each case were then removed from a further pretreated microtiter plate and pipetted into each of the 96 wells of the measurement plate. A bicarbonate- and sodium-containing buffer solution (mmol/l: 5 HEPES, 93.8 NaCl, 40 NaHCO3, 4.7 KCl, 1.25 CaCl2, 1.25 MgCl2, 0.97 Na2HPO4, 0.23 NaH2PO4, 5 glucose; pH 7.4) which contained 50 μM HOE 642 was used for a 100% control, i.e. a recovery of the intracellular pH (pHi) via the NCBE. For a 0% control, i.e. no pHi recovery at all, the bicarbonate-free, sodium-containing buffer solution (mmol/l: 5 HEPES, 133.8 NaCl, 4.7 KCl, 1.25 CaCl2, 1.25 MgCl2, 0.97 Na2HPO4, 0.23 NaH2PO4, 5 glucose; pH 7.4) was employed, to which 50 μM HOE 642 were likewise added. The compounds according to the invention were added to the sodium- and bicarbonate-containing solution in various concentrations.
After addition of the buffer solutions to the dye-loaded, acidified cells in the measurement plate, the rise in the fluorescence intensity which corresponded to a rise in the pHi in each well of the microtiter plate was determined. The kinetics were in this case recorded at 35° C. for a period of 2 minutes.
The increase in the fluorescence intensities for different concentrations of the compounds according to the invention was related to the two controls and from this inhibitory action of the substances was determined.
Residual Activity of the NCBE at an Inhibitor Concentration of 10 μM

| melting point | Compound | Residual activity in % (residual activity of the NCBE) [1] [%] |
| --- | --- | --- |
| 111 °C (dec.) | CCCCc1nc(SC)c(C(=O)OCC)n1Cc1ccc(-c2ccccc2S(=O)(=O)NC#N)cc1 [Example 1, Ethyl 2-butyl-5-methylsulfanyl-3-(2′-cyanoaminosulfonyl-biphenyl-4-ylmethyl)-3H-imidazole-4-carboxylate] | 17.7 |
| 118 °C (dec.) | CCCCc1nc(SC)c(C(=O)OCC)n1Cc1cccc(-c2ccccc2S(=O)(=O)NC#N)c1 [Example 4, Ethyl 2-butyl-5-methylsulfanyl-3-(2′-cyanoaminosulfonyl-biphenyl-3-ylmethyl)-3H-imidazole-4-carboxylate] | 39.7 |
| 112 °C (dec.) | CCCCc1nc(SC)c(C(=O)OCC)n1Cc1cccc(-c2cccc(S(=O)(=O)NC#N)c2)c1 [Example 5, Ethyl 2-butyl-5-methylsulfanyl-3-(3′-cyanoaminosulfonyl-biphenyl-3-ylmethyl)-3H-imidazole-4-carboxylate] | 43.2 |
| 120 °C (dec.) | CCCCc1nc(SC)c(C(=O)OCC)n1Cc1cccc(-c2ccc(S(=O)(=O)NC#N)cc2)c1 [Example 6, Ethyl 2-butyl-5-methylsulfanyl-3-(4′-cyanoaminosulfonyl-biphenyl-3-ylmethyl)-3H-imidazole-4-carboxylate] | 58.6 |
| 105 °C (dec.) | CCCCc1nc(SC)c(C(=O)OCC)n1Cc1ccccc1-c1ccccc1S(=O)(=O)NC#N [Example 7, Ethyl 2-butyl-5-methylsulfanyl-3-(2′-cyanoaminosulfonyl-biphenyl-2-ylmethyl)-3H-imidazole-4-carboxylate] | 72.1 |
| > 260 °C | CCOC(=O)c1c(SC)nc(C2CC2)n1Cc1ccc(-c2ccccc2S(=O)(=O)NC#N)cc1 [Example 10, Ethyl 2-cyclopropyl-5-methylsulfanyl-3-(2′-cyanoaminosulfonylbiphenyl-4-ylmethyl)-3H-imidazole-4-carboxylate] | 21.6 |
| 121 °C (dec.) | CCCCc1ncc(C(=O)OCC)n1Cc1ccc(-c2ccccc2S(=O)(=O)NC#N)cc1 [Example 13, Ethyl 2-butyl-3-(2′-cyanoaminosulfonylbiphenyl-4-ylmethyl)-3H-imidazole-4-carboxylate] | 89.5 |
| 135 °C (dec.) | CCCCc1nc(Cl)c(C=O)n1Cc1ccc(-c2ccccc2S(=O)(=O)NC#N)cc1 [Example 15, 4′-(2-Butyl-4-chloro-5-formylimidazol-1-ylmethyl)biphenyl-2-sulfonylcyanamide] | 55.7 |

More lines, now with the values behind:

| Compound | melting point | Residual activity in % (residual activity of the NCBE) [1] [%] |
| --- | --- | --- |
| CCCCc1nc(SC)c(C(=O)OCC)n1Cc1ccc(-c2cccc(S(=O)(=O)NC#N)c2)cc1 [Example 2, Ethyl 2-butyl-5-methylsulfanyl-3-(3′-cyanoaminosulfonylbiphenyl-4-ylmethyl)-3H-imidazole-4-carboxylate] | – | 39.6 |
| CCCCc1nc(SC)c(C(=O)OCC)n1Cc1ccc(-c2ccc(S(=O)(=O)NC#N)cc2)cc1 [Example 3, Ethyl 2-butyl-5-methylsulfanyl-3-(4′-cyanoaminosulfonylbiphenyl-4-ylmethyl)-3H-imidazole-4-carboxylate] | 244 °C (dec.) | 74.1 |
| CCCCc1nc(SC)c(C(=O)OCC)n1Cc1ccccc1-c1cccc(S(=O)(=O)NC#N)c1 [Example 8, Ethyl 2-butyl-5-methylsulfanyl-3-(3′-cyanoaminosulfonyl-biphenyl-2-ylmethyl)-3H-imidazole-4-carboxylate] | 108 °C (dec.) | 60.8 |
| CCCCc1nc(SC)c(C(=O)OCC)n1Cc1ccccc1-c1ccc(S(=O)(=O)NC#N)cc1 [Example 9, Ethyl 2-butyl-5-methylsulfanyl-3-(4′-cyanoaminosulfonyl-biphenyl-2-ylmethyl)-3H-imidazole-4-carboxylate] | 116 °C (dec.) | 31.6 |
| N#CNS(=O)(=O)c1ccccc1-c1ccc(Cn2c(-c3ccccc3)nc(Cl)c2C=O)cc1 [Example 11, 4′-(4-Chloro-5-formyl-2-phenylimidazol-1-ylmethyl)biphenyl-2-sulfonylcyanamide] | – | 15.0 |
| COc1nc(-c2ccccc2)n(Cc2ccc(-c3ccccc3S(=O)(=O)NC#N)cc2)c1C=O [Example 12, 4′-(4-Methoxy-5-formyl-2-phenylimidazol-1-ylmethyl)biphenyl-2-sulfonylcyanamide] | – | 20.8 |
| CCCCc1nc(OC)c(C#N)n1Cc1ccc(-c2ccccc2S(=O)(=O)NC#N)cc1 [Example 14, 4′-(2-Butyl-5-cyano-4-methoxyimidazol-1-ylmethyl)biphenyl-2-sulfonylcyanamide] | 160 °C (dec.) | 47.3 |
| CCCc1nc(SC)c(C(=O)OCC)n1Cc1ccc(-c2ccccc2S(=O)(=O)NC#N)cc1 [Example 16] | 165 °C (dec.) | 11.5 |
| CCCCc1nc(SC)c(C(=O)OCC)n1Cc1ccc(-c2ccc(S(=O)(=O)NC#N)cc2C(F)(F)F)cc1 [Example 23, Ethyl 2-butyl-5-methylsulfanyl-3-(4′-cyanoaminosulfonyl-2′-trifluoromethylbiphenyl-4-ylmethyl)-3H-imidazole-4-carboxylate] | – | 31.6 |
| CCCCc1nc(SC)cn1Cc1ccc(-c2ccccc2S(=O)(=O)NC#N)cc1 [Example 27, 4′-(2-Butyl-4-methylsulfanylimidazol-1-ylmethyl)biphenyl-2-sulfonylcyanamide] | – | 50.0 |
| N#CNS(=O)(=O)c1ccccc1-c1ccc(Cn2cc(Cl)nc2-c2ccccc2)cc1 [Example 28, 4′-(4-Chloro-2-phenylimidazol-1-ylmethyl)biphenyl-2-sulfonylcyanamide] | – | 30.5 |
| CC(=O)c1c(Cl)nc(-c2ccccc2)n1Cc1ccc(-c2ccccc2S(=O)(=O)NC#N)cc1 [Example 29, 4′-(5-Acetyl-4-chloro-2-phenylimidazol-1-ylmethyl)biphenyl-2-sulfonylcyanamide] | – | 39.6 |
| COc1nc(-c2ccccc2)n(Cc2ccc(-c3ccccc3S(=O)(=O)NC#N)cc2)c1C(C)=O [Example 30, 4′-(5-Acetyl-4-methoxy-2-phenylimidazol-1-ylmethyl)biphenyl-2-sulfonylcyanamide] | – | 48.8 |
| N#CNS(=O)(=O)c1ccccc1-c1ccc(Cn2c(-c3ccccc3)nc(-c3ccccc3)c2-c2ccccc2)cc1 [Example 31, 4′-(2,4,5-Triphenylimidazol-1-ylmethyl)biphenyl-2-sulfonylcyanamide] | – | 36.5 |
| N#CNS(=O)(=O)c1ccccc1-c1ccc(Cn2c(-c3ccccc3)nc(Cl)c2C=O)c(Cl)c1 [Example 32, 3′-Chloro-4′-(4-chloro-5-formyl-2-phenylimidazol-1-ylmethyl)biphenyl-2-sulfonylcyanamide] | – | 7.8 |
| N#CNS(=O)(=O)c1ccccc1-c1ccc(Cn2c(-c3ccccc3)nc(Cl)c2C=O)c(F)c1 [Example 33, 3′-Fluoro-4′-(4-chloro-5-formyl-2-phenyl-imidazole-1-ylmethyl)biphenyl-2-sulfonylcyanamide] | – | 7.6 |
| COc1nc(-c2ccccc2)n(Cc2ccc(-c3ccccc3S(=O)(=O)NC#N)cc2Cl)c1C=O [Example 34, 3′-Chloro-4′-(4-methoxy-5-formyl-2-phenyl-imidazole-1-ylmethyl)biphenyl-2-sulfonylcyanamide] | – | 5.5 |
| N#CNS(=O)(=O)c1ccccc1-c1ccc(Cn2c(-c3ccccc3)nc(Oc3ccccc3)c2C=O)c(Cl)c1 [Example 35, 3′-Chloro-4′-(4-phenoxy-5-formyl-2-phenyl-imidazole-1-ylmethyl)biphenyl-2-sulfonylcyanamide] | – | 3.2 |
